Experimental data published in US20120010292A1, “MODIFICATION I OF 4-(PHENYL)ETHYL]-AMINO}METHYL)BENZOIC ACID” (BAYER SCHERING PHARMA AKTIENGESELLSCHAFT, priority 2008, published 2012).

Assay: Stability of the crystal modification (thermodynamic and storage stability)
Assay type: physicochemical
Conditions: for thermodynamic stability of the crystal modification: solid form of the compound of the formula (I)

| SMILES | storage stability (even after processing to suspensions) | thermodynamic stability of the crystal modification |
| --- | --- | --- |
| O=C(O)CCCCN(CCc1ccccc1OCc1ccc(CCc2ccccc2)cc1)Cc1ccc(C(=O)O)cc1 [modification I, 4-({(4-carboxybutyl)[2-(2-{[4-(2-phenylethyl)benzyl]oxy}phenyl)ethyl]amino}-methyl)benzoic acid] | storage-stable | thermodynamically stable |
| O=C(O)CCCCN(CCc1ccccc1OCc1ccc(CCc2ccccc2)cc1)Cc1ccc(C(=O)O)cc1 [modification IV, 4-({(4-Carboxybutyl)[2-(2-{[4-(2-phenylethyl)benzyl]oxy}phenyl)ethyl]amino}methyl)benzoic acid] | – | metastable |
